Data as given in patent US20220242870A1, “HETEROCYCLE-FUSED PYRIMIDINE DERIVATIVE AND USE THEREOF” (VORONOI Inc., priority 2019, published 2022).

How the values were obtained:
[1] = molecular target: T1, human FLT3-ITD enzyme (Homo sapiens, UniProt P36888); test: FLT3 enzyme inhibitory ability (ADP-Glo kinase assay); format: biochemical; details: human FLT3-ITD enzyme 10 ng, ATP 10 μM, 25° C. 1 hour
T1 sequence (P36888 1-993): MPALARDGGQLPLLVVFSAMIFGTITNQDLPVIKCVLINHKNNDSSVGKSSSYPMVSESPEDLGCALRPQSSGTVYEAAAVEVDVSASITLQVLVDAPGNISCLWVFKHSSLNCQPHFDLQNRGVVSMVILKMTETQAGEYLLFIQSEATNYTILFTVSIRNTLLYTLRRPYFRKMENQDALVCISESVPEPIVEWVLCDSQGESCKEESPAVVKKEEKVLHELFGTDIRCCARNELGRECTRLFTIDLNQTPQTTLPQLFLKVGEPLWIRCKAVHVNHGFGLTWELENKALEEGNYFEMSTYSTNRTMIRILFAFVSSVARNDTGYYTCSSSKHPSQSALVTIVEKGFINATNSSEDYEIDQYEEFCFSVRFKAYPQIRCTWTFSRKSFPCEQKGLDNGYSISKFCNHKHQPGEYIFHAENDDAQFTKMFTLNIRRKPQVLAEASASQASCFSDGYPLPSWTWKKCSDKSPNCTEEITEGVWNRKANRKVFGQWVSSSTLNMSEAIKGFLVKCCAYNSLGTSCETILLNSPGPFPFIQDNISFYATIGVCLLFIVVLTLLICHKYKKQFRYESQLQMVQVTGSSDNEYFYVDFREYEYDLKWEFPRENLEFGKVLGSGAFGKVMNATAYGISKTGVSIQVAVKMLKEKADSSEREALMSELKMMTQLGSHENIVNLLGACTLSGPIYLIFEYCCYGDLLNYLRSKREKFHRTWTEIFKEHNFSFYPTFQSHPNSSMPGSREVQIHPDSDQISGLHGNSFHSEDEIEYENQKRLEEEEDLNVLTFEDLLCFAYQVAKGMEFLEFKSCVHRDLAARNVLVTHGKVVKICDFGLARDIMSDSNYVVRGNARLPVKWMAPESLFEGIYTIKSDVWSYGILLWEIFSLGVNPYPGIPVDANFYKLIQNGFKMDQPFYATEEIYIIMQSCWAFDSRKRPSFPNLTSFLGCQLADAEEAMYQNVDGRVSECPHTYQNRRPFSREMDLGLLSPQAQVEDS
Description: The inhibitory activities of the example compounds according to the present invention to the FLT3-ITD enzyme were evaluated. Specifically, the compound of the present invention was reacted with a purified human FLT3-ITD enzyme (Signalchem). A composition of 40 mM Tris-HCl pH 7.4, 20 mM MgCl2, 0.5 mg/mL BSA and 50 μM DTT was used as a reaction buffer, and reactions of all test matters were performed on the reaction buffer. Upon the test, human FLT3-ITD enzyme (10 ng), purified ATP (10 μM) and a specific substrate solution were reacted at 25° C. for 1 hour, and then the enzyme activity was identified using an in vitro ADP-Glo™ kinase assay (Promega). The enzyme activity reaction solution, the ADP-Glo reaction solution and the enzyme ability detection solution were reacted in a ratio of 2:2:1, and the activity inhibition degree of the enzyme was measured as luminescence. Using the solvent-treated group that was not treated with the compound as a control group, the enzyme activity inhibition degree according to the treatment concentration of each compound was calculated based on the enzyme activity fluorescence degree, and the concentration of each compound that inhibited 50%, IC50 (nM), was determined using Prism Software (version 5.01, GraphPad).

[2] = tested on: MCF-7 cells; test: Breast cancer cell line proliferation inhibitory activity (CellTiter-Glo 2.0); format: cell-based; details: Homo sapiens, MCF7, 120 hours
Description: In order to evaluate the breast cancer cell line cell proliferation inhibitory activities of Examples according to the present invention, the following experiment was performed. Breast cancer cells of MCF-7 (Korean Cell Line Bank) were planted in a clear bottom white 96-well plate (Corning) so as to be 3×10^3/150 μl/well, and a culture solution comprising the compound continuously diluted in multiples of 3 at 12 concentrations (0.00001-2 mM) and a DMSO control group was added by 0.5 μl/well and treated so that the final concentration was 0.00005-10 μM, and then cultured in a 37° C. CO2 incubator for 120 hours. After 120 hours, the plate treated with the compound is taken out, and CellTiter-Glo® 2.0 Assay (Promega) solution is treated at 150 μl/well and then they mix well. They mix well at room temperature for 10 minutes or so, and the fluorescence is measured with a microplate reader. The data were expressed as a percentage in proportion to the vehicle standard treated cells, the GI50 (nM) values were calculated using GraphPad Prism 8.3.0 (GraphPad software Inc., San Diego), and the results were shown in Table 3 below.

[3] = molecular target: T2, human GST-HPK1 (1-346) (Homo sapiens, UniProt Q92918); test: HPK1 enzyme inhibitory ability (ADP-Glo kinase assay); format: biochemical; details: human GST-HPK1 3 ng, ATP 3 uM, 25° C. 2 hours
T2 construct: purified human GST-HPK1 (1-346, Signalchem) enzyme; purchased Signalchem
T2 sequence (Q92918 1-346): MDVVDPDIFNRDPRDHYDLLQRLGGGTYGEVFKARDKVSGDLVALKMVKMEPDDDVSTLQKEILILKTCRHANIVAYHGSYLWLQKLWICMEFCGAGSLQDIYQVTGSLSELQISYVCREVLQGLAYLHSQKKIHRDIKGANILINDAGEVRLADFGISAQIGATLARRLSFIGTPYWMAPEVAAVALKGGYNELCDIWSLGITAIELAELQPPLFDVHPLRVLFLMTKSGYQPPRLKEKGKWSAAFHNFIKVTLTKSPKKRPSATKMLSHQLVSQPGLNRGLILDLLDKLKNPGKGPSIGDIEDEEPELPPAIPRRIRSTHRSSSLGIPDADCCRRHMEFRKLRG
Description: In order to evaluate the inhibitory activities of the example compounds according to the present invention on the HPK1 (hematopoietic progenitor kinase 1) enzyme, the following experiment was performed. The example compounds were reacted with the purified human GST-HPK1 (1-346, Signalchem) enzyme to evaluate the enzyme inhibitory ability by the following method. As the reaction buffer, a composition of 40 mM Tris-HCl pH 7.4, 20 mM MgCl2, 0.5 mg/mL BSA and 50 uM DTT was used, and reactions of all test matters were performed on the reaction buffer. Upon the test, the human GST-HPK1 (3 ng) enzyme, the purified ATP (3 uM) and a specific substrate solution were reacted at 25° C. for 2 hours, and then the enzyme activity was identified using an in vitro ADP-Glo™ kinase assay (promega). The enzyme activity reaction solution, the ADP-Glo reaction solution and the enzyme ability detection solution were reacted in a ratio of 2:2:1 to measure luminescence. The enzyme activity inhibition degree according to the treatment concentrations of the respective compounds was calculated based on the fluorescence of the enzyme activity of the solvent control group that was not treated with the compound, where the concentration of each compound that inhibited enzyme activity inhibition by 50% was determined as an IC50 (nM) value.

| IC50 [1] [nM] | GI50 [2] [nM] | IC50 [3] [nM] | Compound |
| --- | --- | --- | --- |
| > 500 | > 500 | > 500 | CN(C)[C@@H]1CCN(c2cccc(Nc3nc(N4OCC[C@H]4c4ccccc4)c4cc[nH]c4n3)c2)C1 [Example 100, N-(3-((R)-3-(dimethylamino)pyrrolidin-1-yl)phenyl)-4-((S)-3-phenylisoxazolidin-2-yl)-7H-pyrrolo[2,3-d]pyrimidin-2-amine] |
| > 500 | > 500 | ≥ 250 | CN1C[C@@H]2C[C@H]1CN2c1cc(Nc2nc(N3OCC[C@H]3c3ccccc3)c3cc[nH]c3n2)cc(S(C)(=O)=O)c1 [Example 91, N-(3-((1S,4S)-5-methyl-2,5-diazabicyclo[2.2.1]heptan-2-yl)-5-(methylsulfonyl)phenyl)-4-((S)-3-phenylisoxazolidin-2-yl)-7H-pyrrolo[2,3-d]pyrimidin-2-amine] |
| > 500 | > 500 | ≥ 250 | CCN1CCN(C2CCN(c3ccc(Nc4nc(N5OCC[C@H]5c5ccccc5)c5cc[nH]c5n4)cc3)CC2)CC1 [Example 85, (S)-N-(4-(4-(4-ethylpiperazin-1-yl)piperidin-1-yl)phenyl)-4-(3-phenylisoxazolidin-2-yl)-7H-pyrrolo[2,3-d]pyrimidin-2-amine] |
| > 500 | > 500 | > 500 | CN(C)[C@H]1CCN(c2cccc(Nc3nc(N4OCC[C@H]4c4ccccc4)c4sccc4n3)c2)C1 [Example 62, N-(3-((S)-3-(dimethylamino)pyrrolidin-1-yl)phenyl)-4-((S)-3-phenylisoxazolidin-2-yl)thieno[3,2-d]pyrimidin-2-amine] |
| > 500 | ≥ 250 | > 500 | COc1cc(N2CCC(N3CCN(C)CC3)CC2)ccc1Nc1nc(N2OCC[C@H]2c2ccccc2)c2c(C#N)c[nH]c2n1 [Example 121, (S)-2-((2-methoxy-4-(4-(4-methylpiperazin-1-yl)piperidin-1-yl)phenyl)amino)-4-(3-phenylisoxazolidin-2-yl)-7H-pyrrolo[2,3-d]pyrimidine-5-carbonitrile] |
| ≥ 250 | > 500 | ≥ 250 | COc1cc(Nc2nc(N3OCC[C@H]3c3ccccc3)c3cc[nH]c3n2)ccc1N1CCN(CCO)CC1 [Example 82, (S)-2-(4-(2-methoxy-4-((4-(3-phenylisoxazolidin-2-yl)-7H-pyrrolo[2,3-d]pyrimidin-2-yl)amino)phenyl)piperazin-1-yl)ethan-1-ol] |
| > 500 | > 500 | > 500 | OCCN1CC[C@@H](Oc2cc(Nc3nc(N4OCC[C@H]4c4ccccc4)c4sccc4n3)cc(C3CC3)c2)C1 [Example 65, 2-((R)-3-(3-cyclopropyl-5-((4-((S)-3-phenylisoxazolidin-2-yl)thieno[3,2-d]pyrimidin-2-yl)amino)phenoxy)pyrrolidin-1-yl)ethan-1-ol] |
| > 500 | > 500 | > 500 | CN1CCN(c2ccc(Nc3nc(N4OCC[C@@H]4c4ccccc4)c4sccc4n3)cc2)CC1 [Example 60, (R)-N-(4-(4-methylpiperazin-1-yl)phenyl)-4-(3-phenylisoxazolidin-2-yl)thieno[3,2-d]pyrimidin-2-amine] |
| > 500 | > 500 | ≥ 250 | CN1CCC(NC(=O)c2ccc(Nc3nc(N4OCC[C@H]4c4ccccc4)c4cc[nH]c4n3)cc2)CC1 [Example 95, (S)-N-(1-methylpiperidin-4-yl)-4-((4-(3-phenylisoxazolidin-2-yl)-7H-pyrrolo[2,3-d]pyrimidin-2-yl)amino)benzamide] |
| > 500 | > 500 | > 500 | CN(C)[C@H]1CCN(c2cccc(Nc3nc(N4N=CCC4c4ccccc4)c4sccc4n3)c2)C1 (stereo partly drawn) [Example 18, N-(3-((S)-3-(dimethylamino)pyrrolidin-1-yl)phenyl)-4-(5-phenyl-4,5-dihydro-1H-pyrazol-1-yl)thieno[3,2-d]pyrimidin-2-amine] |
| > 500 | > 500 | > 500 | CN(C)[C@@H]1CCN(c2cccc(Nc3nc(N4OCC[C@@H]4c4ccccc4)c4cc[nH]c4n3)c2)C1 [Example 125, N-(3-((R)-3-(dimethylamino)pyrrolidin-1-yl)phenyl)-4-((R)-3-phenylisoxazolidin-2-yl)-7H-pyrrolo[2,3-d]pyrimidin-2-amine] |
| > 500 |  | > 500 | COc1cc(Nc2nc(N3OCC[C@H]3c3ccccc3)c3cc[nH]c3n2)cc(C(=O)N2CCN(CCO)CC2)c1 [Example 94, (S)-(4-(2-hydroxyethyl)piperazin-1-yl)(3-methoxy-5-((4-(3-phenylisoxazolidin-2-yl)-7H-pyrrolo[2,3-d]pyrimidin-2-yl)amino)phenyl)methanone] |
|  |  | > 500 | COc1ccc2c(c1Nc1nc(N3OCC[C@H]3c3ccccc3)c3cc[nH]c3n1)CCN(C)C2 [Example 114, (S)-6-methoxy-2-methyl-N-(4-(3-phenylisoxazolidin-2-yl)-7H-pyrrolo[2,3-d]pyrimidin-2-yl)-1,2,3,4-tetrahydroisoquinolin-5-amine] |
|  |  | > 500 | COc1ccc2c(c1Nc1nc(N3OCC[C@H]3c3ccccc3)c3cc[nH]c3n1)CCNC2 [Example 113, (S)-6-methoxy-N-(4-(3-phenylisoxazolidin-2-yl)-7H-pyrrolo[2,3-d]pyrimidin-2-yl)-1,2,3,4-tetrahydroisoquinolin-5-amine] |
|  |  | > 500 | COc1cc(C(=O)N2CCC(N3CCOCC3)CC2)ccc1Nc1nc(N2OCC[C@H]2c2ccccc2)c2cc[nH]c2n1 [Example 97, (S)-(3-methoxy-4-((4-(3-phenylisoxazolidin-2-yl)-7H-pyrrolo[2,3-d]pyrimidin-2-yl)amino)phenyl)(4-morpholinopiperidin-1-yl)methanone] |
